Data taken from ChEMBL document CHEMBL5236560, “Structure-Based Discovery of Potent CARM1 Inhibitors for Solid Tumor and Cancer Immunology Therapy” (J Med Chem, 2021).

Legend:
[1] = target: T1, Histone-arginine methyltransferase CARM1 (Homo sapiens, UniProt Q86X55); test: Inhibition of human CARM1 (140 to 480 residues) incubated for 15 mins measured after 60 min by AlphaLISA assay
T1 sequence (Q86X55 whole entry): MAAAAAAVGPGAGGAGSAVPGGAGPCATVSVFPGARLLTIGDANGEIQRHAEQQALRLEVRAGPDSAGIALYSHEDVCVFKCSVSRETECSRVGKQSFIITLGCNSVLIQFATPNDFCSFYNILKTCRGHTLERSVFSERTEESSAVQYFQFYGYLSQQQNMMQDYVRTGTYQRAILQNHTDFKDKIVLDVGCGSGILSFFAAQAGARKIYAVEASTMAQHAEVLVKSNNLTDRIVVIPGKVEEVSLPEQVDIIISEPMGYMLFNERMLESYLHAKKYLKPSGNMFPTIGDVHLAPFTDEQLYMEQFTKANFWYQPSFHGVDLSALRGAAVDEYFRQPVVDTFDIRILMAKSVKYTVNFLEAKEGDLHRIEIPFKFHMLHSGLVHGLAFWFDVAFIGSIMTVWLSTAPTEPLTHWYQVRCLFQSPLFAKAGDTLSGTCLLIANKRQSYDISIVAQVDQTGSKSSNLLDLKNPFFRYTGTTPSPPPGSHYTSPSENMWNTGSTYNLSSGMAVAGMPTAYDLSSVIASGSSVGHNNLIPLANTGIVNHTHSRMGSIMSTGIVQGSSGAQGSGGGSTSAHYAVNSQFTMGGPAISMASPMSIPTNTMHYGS

BT-549 = test: Antiproliferative activity against human BT-549 cells assessed as cell growth inhibition incubated for 6 days by SRB assay; assay type: functional, cell-based; conditions: BT-549, 144 h
A-375 = test: Antiproliferative activity against human A-375 cells assessed as cell growth inhibition incubated for 6 days by SRB assay; assay type: functional, cell-based; conditions: A-375, 144 h

Compound | IC50 [1] | IC50 (BT-549) | IC50 (A-375)
Cc1c(NC2CCOCC2)nc(-c2cccc(CNC(=O)[C@@H](N)CO)c2)nc1-c1ccccc1 | > 1 µM | – | –
CNCCNCc1cccc(-c2nc(NC3CCOCC3)c(C)c(-c3ccc(OC)cc3)n2)c1 | 0.0269 µM | – | –
CNCCNCc1cccc(-c2nc(NC3CCOCC3)c(C)c(-c3ccnc4[nH]ccc34)n2)c1 | 0.00384 µM | 25.2 µM | 18.2 µM
CNCCNCc1cccc(-c2nc(-c3c(C)noc3C)c(C)c(N3CCN(C)CC3)n2)c1 | 0.0131 µM | – | –
CNCCNCc1cccc(-c2nc(NC3CCOCC3)c(C)c(-c3c(C)nn(C)c3C)n2)c1 | 0.00065 µM | > 50 µM | > 50 µM
CNCCNCc1cccc(-c2nc(-c3c(C)noc3C)c(C)c(N3CCOCC3)n2)c1 | 0.0011 µM | > 50 µM | 24.7 µM
CNCCNCc1cccc(-c2nc(NC3CCOCC3)c(C)c(-c3cncnc3)n2)c1 | 0.00429 µM | > 50 µM | > 50 µM
CNCCNCc1cccc(-c2nc(-c3c(C)noc3C)c(C)c(N3CCCCC3)n2)c1 | 0.0217 µM | – | –
CNCCNCc1cccc(-c2nc(NC3CCN(S(C)(=O)=O)CC3)c(C)c(-c3c(C)noc3C)n2)c1 | 0.00424 µM | > 50 µM | > 50 µM
CNCCNCc1cccc(-c2nc(NCc3ccccc3)c(C)c(NC3CCOCC3)n2)c1 | 0.0315 µM | – | –
CNCCNCc1cccc(-c2nc(NC3CCOCC3)c(C)c(-c3cc4cccc(OC)c4[nH]3)n2)c1 | 0.0294 µM | – | –
CNCCNCc1cccc(-c2nc(NC3CCOCC3)c(C)c(-c3cccc4[nH]ccc34)n2)c1 | 0.0118 µM | – | –
CNCCNCc1cccc(-c2nc(Cl)c(C)c(NC3CCOCC3)n2)c1 | 0.0295 µM | – | –
CNCCNCc1cccc(-c2nc(NC3CCOCC3)c(C)c(-c3cccnc3)n2)c1 | 0.00092 µM | > 50 µM | 45.5 µM
CNCCNCc1cccc(-c2nc(NC3CCOCC3)c(C)c(-c3ccc(S(C)(=O)=O)cc3)n2)c1 | 0.0052 µM | – | –
CNCCNCc1cccc(-c2nc(Nc3ccccc3)c(C)c(-c3c(C)nn(C)c3C)n2)c1 | 0.0196 µM | 8.2 µM | 6.7 µM
CNCCNCc1cccc(-c2nc(NC3CCOCC3)c(C)c(-c3cccc4cnccc34)n2)c1 | 0.00437 µM | 32 µM | 12.7 µM

Compound | IC50 [1] | IC50 (BT-549) | IC50 (A-375)
CNCCNCc1cccc(-c2nc(NC3CCOCC3)c(C)c(-c3ccc(OC(F)(F)F)cc3)n2)c1 | 0.00513 µM | – | –
CNCCNCc1cccc(-c2nc(-c3c(C)noc3C)c(C)c(N3Cc4ccccc4C3)n2)c1 | 0.0101 µM | – | –
Cc1noc(C)c1-c1nc(-c2cccc(CNC(=O)[C@@H](N)CO)c2)nc(NC2CCOCC2)c1C | > 1 µM | – | –
Cc1noc(C)c1-c1nc(-c2cccc(CNC(=O)[C@H](C)N)c2)nc(NC2CCOCC2)c1C | > 1 µM | – | –
CNCCNCc1cccc(-c2nc(NC3CCOCC3)c(C)c(Oc3ccccc3)n2)c1 | 0.06 µM | – | –
Cc1c(NC2CCOCC2)nc(-c2cccc(CNC(=O)[C@H](C)N)c2)nc1-c1ccccc1 | > 1 µM | – | –
CNCCNCc1cccc(-c2nc(NC3CCOCC3)c(C)c(-c3cccc4ncccc34)n2)c1 | 0.00607 µM | – | –
CNCCNCc1cccc(-c2nc(NC3CCOCC3)c(C)c(OCc3ccccc3)n2)c1 | 0.0336 µM | – | –
Cc1c(NC2CCOCC2)nc(-c2cccc(CNC(=O)[C@H](C)N)c2)nc1-c1ccncc1 | > 1 µM | – | –
CNCCNCc1cccc(-c2nc(NC3CCOCC3)c(C)c(-c3ccccn3)n2)c1 | 0.00615 µM | – | –
CNCCNCc1cccc(-c2nc(Nc3ccccc3)c(C)c(-c3cccnc3)n2)c1 | 0.0116 µM | 14.1 µM | 10.9 µM
CNCCNCc1cccc(-c2nc(-c3c(C)noc3C)c(C)c(N3CCN(C(C)=O)CC3)n2)c1 | 0.0115 µM | – | –
Cc1c(NC2CCOCC2)nc(-c2cccc(CNC(=O)[C@@H](N)CO)c2)nc1-c1ccncc1 | > 1 µM | – | –
CNCCNCc1cccc(-c2nc(NC3CCOCC3)c(C)c(-c3cc4ccccc4s3)n2)c1 | 0.0214 µM | – | –
CNCCNCc1cccc(-c2nc(NC3CCOCC3)c(C)c(-c3ccccc3)n2)c1 | 0.0102 µM | – | –
CNCCNCc1cccc(-c2nc(Nc3ccccc3)c(C)c(NC3CCOCC3)n2)c1 | 0.187 µM | – | –
